Laboratory results as given in article PMC12347832, “Multi-Component Synthesis of New Fluorinated-Pyrrolo[3,4-b]pyridin-5-ones Containing the 4-Amino-7-chloroquinoline Moiety and In Vitro–In Silico Studies Against Human SARS-CoV-2” (International Journal of Molecular Sciences, 2025).
pIC50: −log10 of the molar value. Read-outs that look alike come from different tables or passages of the source.

Assays:
SARS-CoV = conditions: cited from earlier work
SARS-CoV-2 = test: Plaque reduction / time-of-addition assay; type: cell-based; conditions: for IC50: Vero E6, MOI 0.1, plaque assay
[1] = Cell viability assay (crystal violet); conditions: African green monkey
[2] = Severe acute respiratory syndrome coronavirus 2, Vero C1008, compound added at the time of infection (0 h), read-out: IC50 (µM) 0 h
[3] = Severe acute respiratory syndrome coronavirus 2, Vero C1008, read-out: IC50 (µM) 1 h, compound added 1 h postinfection

CCN(CC)CCCC(C)Nc1ccnc2cc(Cl)ccc12 (stereo not drawn) [Chloroquine]
pIC50 (SARS-CoV): 5.06

O=C1c2cc(N3CCOCC3)c(Cc3ccccc3)nc2C(c2ccccc2F)N1CCNc1ccnc2cc(Cl)ccc12 (stereo not drawn) [19e, 2-Benzyl-6-(2-((7-chloroquinolin-4-yl)amino)ethyl)-7-(2-fluorophenyl)-3-morpholino-6,7-dihydro-5H-pyrrolo[3,4-b]pyridin-5-one]
IC50 (SARS-CoV-2; [2]): 17.1 µM

CCN(CC)c1cc2c(nc1Cc1ccccc1)C(c1ccc(F)cc1)N(CCNc1ccnc3cc(Cl)ccc13)C2=O (stereo not drawn) [19d, 2-Benzyl-6-(2-((7-chloroquinolin-4-yl)amino)ethyl)-3-(diethylamino)-7-(4-fluorophenyl)-6,7-dihydro-5H-pyrrolo[3,4-b]pyridin-5-one]
viability at 48 h, 10 µM [1]: > 90%
IC50 (SARS-CoV-2; [2]): 6.74 µM

CCN(CC)c1cc2c(nc1Cc1ccccc1)C(c1ccc(C(F)(F)F)cc1)N(CCNc1ccnc3cc(Cl)ccc13)C2=O (stereo not drawn) [19i, 2-Benzyl-6-(2-((7-chloroquinolin-4-yl)amino)ethyl)-3-(diethylamino)-7-(4-(trifluoromethyl)phenyl)-6,7-dihydro-5H-pyrrolo[3,4-b]pyridin-5-one]
viability at 48 h, 10 µM [1]: > 90%
IC50 (SARS-CoV-2; [3]): 5.29 µM
IC50 (SARS-CoV-2; [2]): 24 µM
plaque reduction (SARS-CoV-2; compound added 1 h postinfection): approximately one logarithmic unit

O=C1c2cc(N3CCOCC3)c(Cc3ccccc3)nc2C(c2ccccc2F)N1CCCNc1ccnc2cc(Cl)ccc12 (stereo not drawn) [19f, 2-Benzyl-6-(3-((7-chloroquinolin-4-yl)amino)propyl)-7-(2-fluorophenyl)-3-morpholino-6,7-dihydro-5H-pyrrolo[3,4-b]pyridin-5-one]
viability at 48 h, 10 µM [1]: > 80%
IC50 (SARS-CoV-2; [2]): 9.23 µM

O=C1c2cc(N3CCOCC3)c(Cc3ccccc3)nc2C(c2ccc(C(F)(F)F)cc2)N1CCNc1ccnc2cc(Cl)ccc12 (stereo not drawn) [19g, 2-Benzyl-6-(2-((7-chloroquinolin-4-yl)amino)ethyl)-3-morpholino-7-(4-(trifluoromethyl)phenyl)-6,7-dihydro-5H-pyrrolo[3,4-b]pyridin-5-one]
viability at 48 h, 10 µM [1]: > 80%
IC50 (SARS-CoV-2; [3]): 6.98 µM
IC50 (SARS-CoV-2; [2]): 7.5 µM

O=C1c2cc(N3CCOCC3)c(Cc3ccccc3)nc2C(c2c(F)c(F)c(F)c(F)c2F)N1CCCNc1ccnc2cc(Cl)ccc12 (stereo not drawn) [19l, 2-Benzyl-6-(3-((7-chloroquinolin-4-yl)amino)propyl)-3-morpholino-7-(perfluorophenyl)-6,7-dihydro-5H-pyrrolo[3,4-b]pyridin-5-one]
IC50 (SARS-CoV-2; [2]): 7.06 µM

O=C1c2cc(N3CCOCC3)c(Cc3ccccc3)nc2C(c2cc(C(F)(F)F)cc(C(F)(F)F)c2)N1CCNc1ccnc2cc(Cl)ccc12 (stereo not drawn) [19j, 2-Benzyl-7-(3,5-bis(trifluoromethyl)phenyl)-6-(2-((7-chloroquinolin-4-yl)amino)ethyl)-3-morpholino-6,7-dihydro-5H-pyrrolo[3,4-b]pyridin-5-one]
IC50 (SARS-CoV-2; [2]): 15 µM
